Values joined by “and” are separate entries in the source; they are usually repeats but may differ in a detail not shown here. Equal values may be shown once. Read-outs that look alike come from different tables or passages of the source. Marks after values point to notes of the source that are not given here.
What was measured:
[1] = tested on: rat liver microsomal membranes; test: Inhibition of microsomal lipid peroxidation induced by tert-butyl hydroperoxide (TBARS); assay type: biochemical; conditions: for IC50: male rat liver microsomes, tert-butylhydroperoxide 1 mM, 37 °C, 30 min, TBARS, mean ± SE, read-out: Lpx (IC50; µM)
From the text: Lipid peroxidation is a type of oxidative degradation of lipids caused by free radicals in cell membranes, resulting in cell damage. The most notable initiators of this chain reaction in living cells are reactive oxygen species (ROS), such as OH· and HO2·, which combine with a hydrogen atom to make water and a fatty acid radical. We used tert-butyl hydroperoxide, a relatively stable organic peroxide, as initiator of peroxidation of rat liver microsomal membranes. The inhibition of this reaction depends not only on the free radical scavenging capacity, but also on the capacity of these compounds to interact with and penetrate lipid bilayers. Isoquercitrin derivatives differed considerably in their capacity to inhibit the peroxidation of microsomal membranes. […] A similar trend, e.g., improving the activity in medium chain derivatives with subsequent drop for longer chain esters, was reported for anti-proliferative activity of IQ monocarboxylic acid esters on the growth of tumoral Caco2 cells, and also for the inhibition of tyrosinase activity.
Pooled microsomes from male rat livers (M9066, Sigma-Aldrich, Prague, Czech Republic) were washed five times using centrifugation and phosphate-buffered saline (PBS, 13,500 rpm, 5 min, 4 °C) to remove sucrose. In addition, 400 µL of the diluted microsomal suspension (0.625 mg protein/mL in PBS), the compounds tested in 50 µL of dimethyl sulfoxide (DMSO, final concentration 5–2000 µM) and 50 µL of tert-butylhydroperoxide in PBS (final concentration 1 mM) were mixed and incubated at 37 °C for 30 min. Determination of lipid peroxidation products as thiobarbituric acid reactive substances (TBARS) and calculation of the IC50 values were performed as described previously.

[2] = DPPH radical scavenging assay; assay type: biochemical; conditions: methanol, DPPH 20 µM, 30 min; mean ± SE
Experimental: When reduced, the solution decolorizes in proportion to the strength and concentration of the antiradical compound tested. The results of this test are usually expressed as the concentration of the compound that reduces 50% of the radical (IC50, Table 1). […] However, no clear relationship between the carboxylic chain length and DPPH radical scavenging activity could be established. Antiradical activity was evaluated spectrophotometrically as the ability of the substances to reduce the DPPH radical as described previously with minor modifications.

[3] = Partition coefficient (log P) in octan-1-ol/phosphate buffer pH 7.4; conditions: for logP: octan-1-ol / 6.6 mM phosphate buffer pH 7.4, pH 7.4; for Partition Coefficient: octan-1-ol/6.6 mM phosphate buffer pH 7.4, 25 °C, mean ± SD, triplicate
Experimental: The hydrophobicity of the prepared compounds was determined by the measurement of partition coefficient P in a mixture of two immiscible phases—octan-1-ol and 6.6 mM phosphate buffer pH 7.4 to simulate physiological conditions. Before the use, octan-1-ol was stirred with the buffer for 16 h at 25 °C to achieve saturation of both phases, which were then separated.
Then, 150 µL of the stock solutions were mixed with 150 µL of the respective immiscible phase in microcentrifuge tubes (1.5 mL) and stirred (750 rpm) for 2 h at 25 °C in triplicates. Phases were separated and the solute concentration in each phase was determined in 96-well microtitration plates using Sunrise™ spectrophotometer (Schoeller Instruments, Prague, Czech Republic) at 400 nm. Log P was calculated as follows: log Poct/buffer = log([A]octan-1-ol/[A]buffer).

[4] = Folin–Ciocalteau reduction (FCR) assay, reducing capacity; assay type: biochemical; conditions: gallic acid equivalents, mean ± SE
Experimental: Folin-Ciocalteu assay, commonly known as the total phenols assay, determines a sample reducing capacity. FCR contains heteropolyphosphotunstate-molybdates, which are reduced in aqueous milieu at pH ≈ 10 to blue species, presumably (PMoW11O40)^4- [29]. […] This is probably related to high hydrophobicity of these derivatives. Reducing capacity was evaluated using Folin-Ciocalteau reagent with minor modifications as described previously.

[5] = ABTS radical cation scavenging (Antioxidant Assay Kit); assay type: biochemical; conditions: Trolox equivalents; aqueous buffer pH 5; mean ± SE
Experimental: Determination of ABTS scavenging activity involves an electron-transfer reaction. […] The capacity to scavenge the radical cation (ABTS^·) was evaluated using the Antioxidant Assay Kit (CS0790, Sigma-Aldrich, Prague, Czech Republic) and expressed as Trolox equivalents (TE) from the Trolox calibration curve.

Compound	IC50 [1]	IC50 [2] [µM]	logP [3]	Partition Coefficient [3]	fold more active than IQ in inhibition of microsomal lipid peroxidation ([1]; ratio of Lpx IC50 values relative to IQ (1)) [×]	FCR (GAE) [4]	ABTS (TE) [5]	log P ([3]; pH 7.4)	IC50 ([1]; listed as quercetin) [µM]	FCR (GAE) ([4]; listed as quercetin)
O=C(O)CCCCCCCCCCC(=O)OC[C@H]1O[C@@H](Oc2c(-c3ccc(O)c(O)c3)oc3cc(O)cc(O)c3c2=O)[C@H](O)[C@@H](O)[C@@H]1O [Compound 11, 12-(((2R,3S,4S,5R,6S)-6-((2-(3,4-Dihydroxyphenyl)-5,7-dihydroxy-4-oxo-4H-chromen-3-yl)oxy)-3,4,5-trihydroxytetrahydro-2H-pyran-2-yl)methoxy)-12-oxododecanoic acid]	33 µM and 32.5 µM	2.97 ± 0.22	0.48	3.00 ± 0.03	–	1.58 GAE and 1.58 ± 0.05 ^b GAE	2.16 ± 0.08 ^i TE	–	–	–
C[C@@H]1O[C@@H](OC[C@H]2O[C@@H](Oc3c(-c4ccc(O)c(O)c4)oc4cc(O)cc(O)c4c3=O)[C@H](O)[C@@H](O)[C@@H]2O)[C@H](O)[C@H](O)[C@H]1O [Rutin, quercetin-3-O-[α-L-rhamnopyranosyl-(1→6)-β-D-glucopyranose], reference compound]	202 ± 8 µM	3.66 ± 0.39	–	0.41 ± 0.01	–	2.19 ± 0.10 GAE	1.79 ± 0.09 TE	–	–	–
O=c1c(O)c(-c2ccc(O)c(O)c2)oc2cc(O)cc(O)c12 [Quercetin, quercetin, reference compound]	–	–	–	86.27 ± 0.02	–	–	–	–	–	–
((2R,3S,4R,5R,6S)-3-Acetoxy-6-((2-(3,4-dihydroxyphenyl)-5,7-dihydroxy-4-oxo-4H-chromen-3-yl)oxy)-4,5-dihydroxytetrahydro-2H-pyran-2-yl)methyl acetate [Compound 3]	433 ± 19 µM	2.15 ± 0.04	–	–	–	1.67 ± 0.11 ^b GAE	1.56 ± 0.04 TE	1.59	–	–
quercetin [reference compound]	29.8 ± 0.6 µM	3.78 ± 0.15	–	–	–	2.80 ± 0.16 GAE	2.14 ± 0.10 ^i TE	–	30	2.80
CCCCCCCCCCCCCCCC(=O)OC[C@H]1O[C@@H](Oc2c(-c3ccc(O)c(O)c3)oc3cc(O)cc(O)c3c2=O)[C@H](O)[C@@H](O)[C@@H]1O [Compound 8, ((2R,3S,4S,5R,6S)-6-((2-(3,4-Dihydroxyphenyl)-5,7-dihydroxy-4-oxo-4H-chromen-3-yl)oxy)-3,4,5-trihydroxytetrahydro-2H-pyran-2-yl)methyl palmitate]	1090 ± 36 µM	2.23 ± 0.03	–	–	–	0.76 GAE and 0.76 ± 0.03 ^c GAE	1.0 TE and 1.00 ± 0.06 ^j TE	–	–	–
CCCCCCCCCCCC(=O)OC[C@H]1O[C@@H](Oc2c(-c3ccc(O)c(O)c3)oc3cc(O)cc(O)c3c2=O)[C@H](O)[C@@H](O)[C@@H]1O [Compound 7, ((2R,3S,4S,5R,6S)-6-((2-(3,4-Dihydroxyphenyl)-5,7-dihydroxy-4-oxo-4H-chromen-3-yl)oxy)-3,4,5-trihydroxytetrahydro-2H-pyran-2-yl)methyl dodecanoate]	432 ± 24 µM	1.58 ± 0.05	–	–	–	0.63 GAE and 0.63 ± 0.07 ^c GAE	1.06 ± 0.09 ^j TE	–	–	–

Continued, in another order:

IC50 [1]	IC50 [2] [µM]	logP [3]	Partition Coefficient [3]	fold more active than IQ in inhibition of microsomal lipid peroxidation ([1]; ratio of Lpx IC50 values relative to IQ (1)) [×]	Compound	FCR (GAE) [4]	ABTS (TE) [5]	log P ([3]; pH 7.4)	IC50 ([1]; listed as quercetin) [µM]	FCR (GAE) ([4]; listed as quercetin)
20 µM and 19.7 µM	3.07 ± 0.1	2.1	126.43 ± 0.01	–	CCCCCC(=O)OC[C@H]1O[C@@H](Oc2c(-c3ccc(O)c(O)c3)oc3cc(O)cc(O)c3c2=O)[C@H](O)[C@@H](O)[C@@H]1O [Compound 5, ((2R,3S,4S,5R,6S)-6-((2-(3,4-Dihydroxyphenyl)-5,7-dihydroxy-4-oxo-4H-chromen-3-yl)oxy)-3,4,5-trihydroxytetrahydro-2H-pyran-2-yl)methyl hexanoate]	1.48 ± 0.05 ^b GAE	2.11 ± 0.09 ^i TE	–	–	–
250 ± 19 µM	2.19 ± 0.12	-1	0.10 ± 0.01	–	O=C(O)CCCCC(=O)OC[C@H]1O[C@@H](Oc2c(-c3ccc(O)c(O)c3)oc3cc(O)cc(O)c3c2=O)[C@H](O)[C@@H](O)[C@@H]1O [Compound 10, 6-(((2R,3S,4S,5R,6S)-6-((2-(3,4-Dihydroxyphenyl)-5,7-dihydroxy-4-oxo-4H-chromen-3-yl)oxy)-3,4,5-trihydroxytetrahydro-2H-pyran-2-yl)methoxy)-6-oxohexanoic acid]	1.46 ± 0.14 ^b GAE	2.12 ± 0.10 ^i TE	–	–	–
186 ± 3 µM	2.23 ± 0.08	–	–	–	CCCCCCCC(=O)OC[C@H]1O[C@@H](Oc2c(-c3ccc(O)c(O)c3)oc3cc(O)cc(O)c3c2=O)[C@H](O)[C@@H](O)[C@@H]1O [Compound 6, ((2R,3S,4S,5R,6S)-6-((2-(3,4-Dihydroxyphenyl)-5,7-dihydroxy-4-oxo-4H-chromen-3-yl)oxy)-3,4,5-trihydroxytetrahydro-2H-pyran-2-yl)methyl octanoate]	1.47 ± 0.10 ^b GAE	1.28 ± 0.07 TE	–	–	–
1340 ± 54 µM	1.77 ± 0.06	-1.15	0.07 ± 0.01	–	O=C(O)CCCC(=O)OC[C@H]1O[C@@H](Oc2c(-c3ccc(O)c(O)c3)oc3cc(O)cc(O)c3c2=O)[C@H](O)[C@@H](O)[C@@H]1O [Compound 9, 6-(((2R,3S,4S,5R,6S)-6-((2-(3,4-Dihydroxyphenyl)-5,7-dihydroxy-4-oxo-4H-chromen-3-yl)oxy)-3,4,5-trihydroxytetrahydro-2H-pyran-2-yl)methoxy)-6-oxopentanoic acid]	1.84 ± 0.05 ^a GAE	2.13 ± 0.08 ^i TE	–	–	–
42 ± 2.1 µM	2.51 ± 0.1	1.14	13.76 ± 0.01	23	CC(=O)OC[C@H]1O[C@@H](Oc2c(-c3ccc(O)c(O)c3)oc3cc(O)cc(O)c3c2=O)[C@H](O)[C@@H](O)[C@@H]1O [Compound 2, ((2R,3S,4S,5R,6S)-6-((2-(3,4-Dihydroxyphenyl)-5,7-dihydroxy-4-oxo-4H-chromen-3-yl)oxy)-3,4,5-trihydroxytetrahydro-2H-pyran-2-yl)methyl acetate]	1.63 ± 0.07 ^b GAE	2.04 ± 0.07 ^i TE	–	–	–
24.1 ± 0.8 µM	2.51 ± 0.17	1.96	90.64 ± 0.03	–	CCCC(=O)OC[C@H]1O[C@@H](Oc2c(-c3ccc(O)c(O)c3)oc3cc(O)cc(O)c3c2=O)[C@H](O)[C@@H](O)[C@@H]1O [Compound 4, ((2R,3S,4S,5R,6S)-6-((2-(3,4-Dihydroxyphenyl)-5,7-dihydroxy-4-oxo-4H-chromen-3-yl)oxy)-3,4,5-trihydroxytetrahydro-2H-pyran-2-yl)methyl butyrate]	1.72 ± 0.03 ^a GAE	2.16 ± 0.08 ^i TE	–	–	–

From article PMC4926433, “Isoquercitrin Esters with Mono- or Dicarboxylic Acids: Enzymatic Preparation and Properties” (International Journal of Molecular Sciences, 2016)
